Laboratory results published in ChEMBL document CHEMBL3045446, “In vitro antimicrobial and antimycobacterial activity of some chalcones and their derivatives” (2013).
In brackets after ≈: the same amount, converted by molar mass.

How the values were obtained:
Format in all cases: functional
Pseudomonas aeruginosa [1] = experiment: Antimicrobial activity against Pseudomonas aeruginosa MTCC 741 assessed as diameter of growth inhibition zone after 24 hr
Shigella flexneri [2] = experiment: Antimicrobial activity against Shigella flexneri MTCC1457 assessed as growth inhibition after 24 hr by agar streak dilution method; settings: MTCC1457, 24 h
Pseudomonas aeruginosa [3] = experiment: Antimicrobial activity against Pseudomonas aeruginosa MTCC 741 assessed as growth inhibition after 24 hr by agar streak dilution method; settings: MTCC 741, 24 h
Proteus vulgaris [4] = experiment: Antimicrobial activity against Proteus vulgaris MTCC 1771 assessed as diameter of growth inhibition zone after 24 hr
Aspergillus clavatus [5] = experiment: Antimicrobial activity against Aspergillus clavatus MTCC 1323 assessed as growth inhibition after 48 hr by agar streak dilution method; settings: MTCC 1323, 48 h
Escherichia coli [6] = experiment: Antimicrobial activity against Escherichia coli MTCC 739 assessed as diameter of growth inhibition zone after 24 hr
Bacillus cereus [7] = experiment: Antimicrobial activity against Bacillus cereus MTCC 430 assessed as diameter of growth inhibition zone after 24 hr
Aspergillus clavatus [8] = experiment: Antimicrobial activity against Aspergillus clavatus MTCC 1323 assessed as diameter of growth inhibition zone after 48 hr
Aspergillus niger [9] = experiment: Antimicrobial activity against Aspergillus niger MTCC 282 assessed as growth inhibition after 48 hr by agar streak dilution method; settings: MTCC 282, 48 h
Bacillus cereus [10] = experiment: Antimicrobial activity against Bacillus cereus MTCC 430 assessed as growth inhibition after 24 hr by agar streak dilution method; settings: MTCC 430, 24 h
Aspergillus fumigatus [11] = experiment: Antimicrobial activity against Aspergillus fumigatus MTCC 343 assessed as diameter of growth inhibition zone after 48 hr
Shigella flexneri [12] = experiment: Antimicrobial activity against Shigella flexneri MTCC1457 assessed as diameter of growth inhibition zone after 24 hr
Aspergillus fumigatus [13] = experiment: Antimicrobial activity against Aspergillus fumigatus MTCC 343 assessed as growth inhibition after 48 hr by agar streak dilution method; settings: MTCC 343, 48 h
Aspergillus niger [14] = experiment: Antimicrobial activity against Aspergillus niger MTCC 282 assessed as diameter of growth inhibition zone after 48 hr
[15] = system: Mycobacterium tuberculosis; experiment: Antituberculosis activity against Mycobacterium tuberculosis H37Rv assessed as growth inhibition after 12 to 28 days by L-J MIC method; settings: for MIC: Mycobacterium tuberculosis, H37Rv
Klebsiella pneumoniae [16] = experiment: Antimicrobial activity against Klebsiella pneumoniae MTCC 109 assessed as growth inhibition after 24 hr by agar streak dilution method; settings: MTCC 109, 24 h
Candida albicans [17] = experiment: Antimicrobial activity against Candida albicans MTCC 183 assessed as diameter of growth inhibition zone after 48 hr
Klebsiella pneumoniae [18] = experiment: Antimicrobial activity against Klebsiella pneumoniae MTCC 109 assessed as diameter of growth inhibition zone after 24 hr
Proteus vulgaris [19] = experiment: Antimicrobial activity against Proteus vulgaris MTCC 1771 assessed as growth inhibition after 24 hr by agar streak dilution method; settings: MTCC 1771, 24 h
Salmonella typhi [20] = experiment: Antimicrobial activity against Salmonella enterica subsp. enterica serovar Typhi MTCC 733 assessed as growth inhibition after 24 hr by agar streak dilution method; settings: MTCC 733, 24 h
Staphylococcus aureus [21] = experiment: Antimicrobial activity against Staphylococcus aureus MTCC 96 assessed as growth inhibition after 24 hr by agar streak dilution method; settings: MTCC 96, 24 h
Candida albicans [22] = experiment: Antimicrobial activity against Candida albicans MTCC 183 assessed as growth inhibition after 48 hr by agar streak dilution method; settings: MTCC 183, 48 h
Salmonella typhi [23] = experiment: Antimicrobial activity against Salmonella enterica subsp. enterica serovar Typhi MTCC 733 assessed as diameter of growth inhibition zone after 24 hr
Escherichia coli [24] = experiment: Antimicrobial activity against Escherichia coli MTCC 739 assessed as growth inhibition after 24 hr by agar streak dilution method; settings: MTCC 739, 24 h
Staphylococcus aureus [25] = experiment: Antimicrobial activity against Staphylococcus aureus MTCC 96 assessed as diameter of growth inhibition zone after 24 hr

SMILES | diameter of the inhibition zone (DIZ) (Pseudomonas aeruginosa [1]) [mm] | MIC (Shigella flexneri [2]) [µg/mL] | MIC (Pseudomonas aeruginosa [3]) [µg/mL] | diameter of the inhibition zone (DIZ) (Proteus vulgaris [4]) [mm] | MIC (Aspergillus clavatus [5]) [µg/mL] | diameter of the inhibition zone (DIZ) (Escherichia coli [6]) [mm] | diameter of the inhibition zone (DIZ) (Bacillus cereus [7]) [mm] | diameter of the inhibition zone (DIZ) (Aspergillus clavatus [8]) [mm] | MIC (Aspergillus niger [9]) [µg/mL] | MIC (Bacillus cereus [10]) [µg/mL] | diameter of the inhibition zone (DIZ) (Aspergillus fumigatus [11]) [mm] | diameter of the inhibition zone (DIZ) (Shigella flexneri [12]) [mm] | MIC (Aspergillus fumigatus [13]) [µg/mL] | diameter of the inhibition zone (DIZ) (Aspergillus niger [14]) [mm] | growth inhibition (GI) [15] [%] | MIC [15] [µg/mL] | MIC (Klebsiella pneumoniae [16]) [µg/mL] | diameter of the inhibition zone (DIZ) (Candida albicans [17]) [mm] | diameter of the inhibition zone (DIZ) (Klebsiella pneumoniae [18]) [mm] | MIC (Proteus vulgaris [19]) [µg/mL] | also measured
O=C(/C=C/c1ccccc1O)c1ccc(Nc2cc(=O)oc3ccccc23)cc1 | 15 | 100 (≈ 261 µM) | 100 (≈ 261 µM) | 15 | 100 (≈ 261 µM) | 14 | 13 | 11 | 100 (≈ 261 µM) | 100 (≈ 261 µM) | 17 | 13 | 50 (≈ 130 µM) | 16 | 97 | 500 (≈ 1300 µM) | 50 (≈ 130 µM) | 13 | 19 | 100 (≈ 261 µM) | MIC (Salmonella typhi [20]): 100 µg/mL (≈ 261 µM); MIC (Staphylococcus aureus [21]): 100 µg/mL (≈ 261 µM); MIC (Candida albicans [22]): 100 µg/mL (≈ 261 µM); diameter of the inhibition zone (DIZ) (Salmonella typhi [23]): 13 mm; MIC (Escherichia coli [24]): 100 µg/mL (≈ 261 µM); diameter of the inhibition zone (DIZ) (Staphylococcus aureus [25]): 15 mm
COc1ccc(/C=C/C(=O)c2ccc(Nc3cc(=O)oc4ccccc34)cc2)cc1 | 16 | 100 (≈ 252 µM) | 100 (≈ 252 µM) | 18 | 50 (≈ 126 µM) | 18 | 13 | 18 | 50 (≈ 126 µM) | 100 (≈ 252 µM) | 16 | 15 | 100 (≈ 252 µM) | 20 | 96 | 250 (≈ 629 µM) | 100 (≈ 252 µM) | 16 | 16 | 50 (≈ 126 µM) | MIC (Salmonella typhi [20]): 100 µg/mL (≈ 252 µM); MIC (Staphylococcus aureus [21]): 100 µg/mL (≈ 252 µM); MIC (Candida albicans [22]): 100 µg/mL (≈ 252 µM); diameter of the inhibition zone (DIZ) (Salmonella typhi [23]): 14 mm; MIC (Escherichia coli [24]): 50 µg/mL (≈ 126 µM); diameter of the inhibition zone (DIZ) (Staphylococcus aureus [25]): 15 mm
N#Cc1c(-c2ccc([N+](=O)[O-])cc2)cc(-c2ccc(Nc3cc(=O)oc4ccccc34)cc2)nc1N | 20 | 50 (≈ 105 µM) | 50 (≈ 105 µM) | 19 | 25 (≈ 52.6 µM) | 22 | 22 | 22 | 25 (≈ 52.6 µM) | 25 (≈ 52.6 µM) | 20 | 20 | 25 (≈ 52.6 µM) | 23 | 96 | 250 (≈ 526 µM) | 25 (≈ 52.6 µM) | 23 | 19 | 50 (≈ 105 µM) | MIC (Salmonella typhi [20]): 12.5 µg/mL (≈ 26.3 µM); MIC (Staphylococcus aureus [21]): 50 µg/mL (≈ 105 µM); MIC (Candida albicans [22]): 12.5 µg/mL (≈ 26.3 µM); diameter of the inhibition zone (DIZ) (Salmonella typhi [23]): 23 mm; MIC (Escherichia coli [24]): 25 µg/mL (≈ 52.6 µM); diameter of the inhibition zone (DIZ) (Staphylococcus aureus [25]): 17 mm
CC(=O)N1N=C(c2ccc(Nc3cc(=O)oc4ccccc34)cc2)CC1c1ccccc1 (stereo not drawn) | 10 | 100 (≈ 236 µM) | 100 (≈ 236 µM) | 13 | 100 (≈ 236 µM) | <10 | 13 | 16 | 100 (≈ 236 µM) | 100 (≈ 236 µM) | 13 | <10 | 100 (≈ 236 µM) | <10 | 95 | 1000 (≈ 2360 µM) | 100 (≈ 236 µM) | 12 | 11 | 100 (≈ 236 µM) | MIC (Salmonella typhi [20]): 100 µg/mL (≈ 236 µM); MIC (Staphylococcus aureus [21]): 100 µg/mL (≈ 236 µM); MIC (Candida albicans [22]): 100 µg/mL (≈ 236 µM); diameter of the inhibition zone (DIZ) (Salmonella typhi [23]): 13 mm; MIC (Escherichia coli [24]): 100 µg/mL (≈ 236 µM); diameter of the inhibition zone (DIZ) (Staphylococcus aureus [25]): <10 mm
O=C(/C=C/c1ccc(Cl)cc1Cl)c1ccc(Nc2cc(=O)oc3ccccc23)cc1 | <10 | 100 (≈ 229 µM) | 100 (≈ 229 µM) | 19 | 100 (≈ 229 µM) | 14 | 16 | 14 | 100 (≈ 229 µM) | 50 (≈ 115 µM) | 17 | 13 | 50 (≈ 115 µM) | 15 | 95 | 1000 (≈ 2290 µM) | 100 (≈ 229 µM) | 12 | 16 | 50 (≈ 115 µM) | MIC (Salmonella typhi [20]): 50 µg/mL (≈ 115 µM); MIC (Staphylococcus aureus [21]): 25 µg/mL (≈ 57.3 µM); MIC (Candida albicans [22]): 100 µg/mL (≈ 229 µM); diameter of the inhibition zone (DIZ) (Salmonella typhi [23]): 17 mm; MIC (Escherichia coli [24]): 100 µg/mL (≈ 229 µM); diameter of the inhibition zone (DIZ) (Staphylococcus aureus [25]): 20 mm
CC(=O)N1N=C(c2ccc(Nc3cc(=O)oc4ccccc34)cc2)CC1c1ccccc1O (stereo not drawn) | 16 | 50 (≈ 114 µM) | 100 (≈ 228 µM) | 17 | 50 (≈ 114 µM) | 16 | 16 | 20 | 50 (≈ 114 µM) | 100 (≈ 228 µM) | 18 | 18 | 25 (≈ 56.9 µM) | 19 | 98 | 250 (≈ 569 µM) | 50 (≈ 114 µM) | 16 | 20 | 100 (≈ 228 µM) | MIC (Salmonella typhi [20]): 100 µg/mL (≈ 228 µM); MIC (Staphylococcus aureus [21]): 100 µg/mL (≈ 228 µM); MIC (Candida albicans [22]): 100 µg/mL (≈ 228 µM); diameter of the inhibition zone (DIZ) (Salmonella typhi [23]): 16 mm; MIC (Escherichia coli [24]): 100 µg/mL (≈ 228 µM); diameter of the inhibition zone (DIZ) (Staphylococcus aureus [25]): 17 mm
Cc1ccc(/C=C/C(=O)c2ccc(Nc3cc(=O)oc4ccccc34)cc2)cc1 | 15 | 50 (≈ 131 µM) | 100 (≈ 262 µM) | 19 | 100 (≈ 262 µM) | <10 | 15 | <10 | 100 (≈ 262 µM) | 100 (≈ 262 µM) | 13 | 18 | 100 (≈ 262 µM) | 14 | 96 | 500 (≈ 1310 µM) | 100 (≈ 262 µM) | 11 | 10 | 50 (≈ 131 µM) | MIC (Salmonella typhi [20]): 100 µg/mL (≈ 262 µM); MIC (Staphylococcus aureus [21]): 100 µg/mL (≈ 262 µM); MIC (Candida albicans [22]): 100 µg/mL (≈ 262 µM); diameter of the inhibition zone (DIZ) (Salmonella typhi [23]): 13 mm; MIC (Escherichia coli [24]): 100 µg/mL (≈ 262 µM); diameter of the inhibition zone (DIZ) (Staphylococcus aureus [25]): 14 mm
O=C(/C=C/c1ccc(F)cc1)c1ccc(Nc2cc(=O)oc3ccccc23)cc1 | 16 | 100 (≈ 259 µM) | 100 (≈ 259 µM) | 18 | 100 (≈ 259 µM) | 18 | 19 | 15 | 50 (≈ 130 µM) | 25 (≈ 64.9 µM) | 19 | 14 | 50 (≈ 130 µM) | 17 | 97 | 250 (≈ 649 µM) | 100 (≈ 259 µM) | 13 | 17 | 50 (≈ 130 µM) | MIC (Salmonella typhi [20]): 100 µg/mL (≈ 259 µM); MIC (Staphylococcus aureus [21]): 50 µg/mL (≈ 130 µM); MIC (Candida albicans [22]): 100 µg/mL (≈ 259 µM); diameter of the inhibition zone (DIZ) (Salmonella typhi [23]): 17 mm; MIC (Escherichia coli [24]): 50 µg/mL (≈ 130 µM); diameter of the inhibition zone (DIZ) (Staphylococcus aureus [25]): 18 mm
